According to patent US12540163B2 (priority 2021, dated 2026):
Where “and” joins values, the source holds several entries; their conditions need not be identical. Identical values can stand only once.

Legend:
[1] = target: hHv1 (Homo sapiens, UniProt Q96D96)
[2] = system: hHv1 in human sperm
[3] = system: non-capacitated human sperm
[4] = system: non-capacitated human sperm; remark: listed apart in the source

Chain of hHv1 (Q96D96 whole entry): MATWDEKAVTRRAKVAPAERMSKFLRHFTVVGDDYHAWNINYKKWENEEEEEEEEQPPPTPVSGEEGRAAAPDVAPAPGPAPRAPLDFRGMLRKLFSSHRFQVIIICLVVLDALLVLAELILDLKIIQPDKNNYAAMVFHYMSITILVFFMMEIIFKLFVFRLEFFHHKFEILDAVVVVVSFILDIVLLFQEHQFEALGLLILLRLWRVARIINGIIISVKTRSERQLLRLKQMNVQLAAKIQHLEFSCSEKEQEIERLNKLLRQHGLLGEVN

In the case of O=C(O)CN(CCN(CC(=O)O)CC(=O)O)CC(=O)O [EDTA], the “hHv1 in HEK293T cells V1/2 after application” value [1] is reported as −29 ± 3 mV, the “Sperm H+ current V1/2 after application” value [2] is reported as 4 mV and 4 ± 1 mV and the “Sperm H+ current V1/2 shift” value [2] is reported as 11 mV.

For CC(C)[C@H]1c2ccc(F)cc2CC[C@@]1(CCN(C)CCCc1nc2ccccc2[nH]1)OC(=O)C1CC1 [NNC], the “inhibition of Alb-potentiated [Ca2+]i increase” value [3] was “inhibited”.

bovine serum albumin [BSA] was tested, and the “increase of progesterone-induced peak [Ca2+]i” value [3] was 2.2 fold and the “change of pHi” value [4] was “increased the speed of cytoplasmic alkalization”.
